One data set deals with AEC-I monolayers. Kind of data set: Monolayer permeability, FITC-labeled streptavidin binding to biotin. In kind it is cell-based, rat. The source says:
To obtain monolayer rat type-II alveolar epithelial cells (AEC-II), cells were isolated from Sprague-Dawley rats (250-300 g, N=30 purchased from Charles River Laboratories, Wilmington, Mass.) described by Tschumperlin D J, Margulies SS. Equibiaxial deformation-induced injury of alveolar epithelial cells in vitro. Am J Physiol. 1998; 275(6 Pt 1):L1173-83. Epub 1998/12/09 (PubMed PMID: 9843855), with modifications. Briefly, animals were killed and the lungs were harvested. The lung tissue was digested with elastase at 37° C. and distal airways were isolated. Following, cells were placed on rat IgG coated containing no serum for 90 minutes to eliminate contaminating leukocytes and parenchymal cells. This isolation method yielded approximately 95% pure alveolar epithelial cell population. 1.3 million cells were plated on 1 cm diameter fibronectin-coated custom made silastic membranes. In permeability studies, biotin were mixed with fibronectin and membranes were pretreated with oxygen plasma coating to ensure homogenous distribution of the fibronectin. Cells were cultured with 10% fetal bovine serum (FBS)-containing Minimal Essential Medium (MEM) containing low dose antibiotics for 3 days. 32 to 40 monolayers were per rat. On the 3rd day, matured monolayers were randomized to be exposed to one of the treatments for 24 hours (N=3 monolayers/treatment): • A. RNAiMax transfection reagent treatment using serum free media (Opti-MEM, Thermo Fisher Scientific, Waltham, Mass.). This is a negative control for siRNA experiments where serum free media is used for improved transfection efficiency; • B. non-targeting siRNA treatment ([…], Dharmacon) serves a negative control for transfection; • C. […]
The dose of siRNA and PI treatment was selected based on dose-response curves above (FIG. 2A-FIG. 2E). […] All membranes were treated with FITC-labeled streptavidin (Thermo Fisher Scientific) at the end of the experiment and light emission was detected at 488 nm with fluorescent microscopy (Nikon TE300, Melville, N.Y.). […]

For data set [1], the system named is cleaved caspase 3 (Casp3) in AEC-I monolayers. In kind it is cell-based, rat.

Consider `O=C(/C=C/c1ccccc1)NC(NC(=S)Nc1cccc2cccnc12)C(Cl)(Cl)Cl` (stereo not shown) [salubrinal], for which the monolayer permeability result in the data set with AEC-I monolayers (10 uM salubrinal 2 hrs pretreatment) is on record as “increased permeability”. The Casp3 levels entry in data set [1] (salubrinal, unstretched and stretched monolayers) is reported as “significant increase”.

tunicamycin: in the data set on AEC-I monolayers (1 ug/ml tunicamycin 24 hrs treatment, vs DMSO vehicle control), the monolayer permeability result was “increased permeability”. The “cell death measured with cleaved caspase 3 (Casp3)” value in data set [1] (tunicamycin 1 μg/ml 24 hrs) is recorded as “not related to increased cell death”.

Source of the values: US11026945B2, “Protein kinase RNA-like endoplasmic reticulum kinase (PERK) inhibitors for prevention and/or treatment of lung injury and/or inflammation” (THE TRUSTEES OF THE UNIVERSITY OF PENNSYLVANIA, priority 2016, dated 2021).
